Source: BindingDB's records for doi:10.7270/Q2Q52N1X (Vanderbilt Screening Center for GPCRs, Ion Channels and …, 2009)
pEC50: −log10 of the molar value.

Biological target: T1, Solute carrier family 12 member 5 (Homo sapiens, UniProt Q9H2X9)
T1 sequence (Q9H2X9 whole entry): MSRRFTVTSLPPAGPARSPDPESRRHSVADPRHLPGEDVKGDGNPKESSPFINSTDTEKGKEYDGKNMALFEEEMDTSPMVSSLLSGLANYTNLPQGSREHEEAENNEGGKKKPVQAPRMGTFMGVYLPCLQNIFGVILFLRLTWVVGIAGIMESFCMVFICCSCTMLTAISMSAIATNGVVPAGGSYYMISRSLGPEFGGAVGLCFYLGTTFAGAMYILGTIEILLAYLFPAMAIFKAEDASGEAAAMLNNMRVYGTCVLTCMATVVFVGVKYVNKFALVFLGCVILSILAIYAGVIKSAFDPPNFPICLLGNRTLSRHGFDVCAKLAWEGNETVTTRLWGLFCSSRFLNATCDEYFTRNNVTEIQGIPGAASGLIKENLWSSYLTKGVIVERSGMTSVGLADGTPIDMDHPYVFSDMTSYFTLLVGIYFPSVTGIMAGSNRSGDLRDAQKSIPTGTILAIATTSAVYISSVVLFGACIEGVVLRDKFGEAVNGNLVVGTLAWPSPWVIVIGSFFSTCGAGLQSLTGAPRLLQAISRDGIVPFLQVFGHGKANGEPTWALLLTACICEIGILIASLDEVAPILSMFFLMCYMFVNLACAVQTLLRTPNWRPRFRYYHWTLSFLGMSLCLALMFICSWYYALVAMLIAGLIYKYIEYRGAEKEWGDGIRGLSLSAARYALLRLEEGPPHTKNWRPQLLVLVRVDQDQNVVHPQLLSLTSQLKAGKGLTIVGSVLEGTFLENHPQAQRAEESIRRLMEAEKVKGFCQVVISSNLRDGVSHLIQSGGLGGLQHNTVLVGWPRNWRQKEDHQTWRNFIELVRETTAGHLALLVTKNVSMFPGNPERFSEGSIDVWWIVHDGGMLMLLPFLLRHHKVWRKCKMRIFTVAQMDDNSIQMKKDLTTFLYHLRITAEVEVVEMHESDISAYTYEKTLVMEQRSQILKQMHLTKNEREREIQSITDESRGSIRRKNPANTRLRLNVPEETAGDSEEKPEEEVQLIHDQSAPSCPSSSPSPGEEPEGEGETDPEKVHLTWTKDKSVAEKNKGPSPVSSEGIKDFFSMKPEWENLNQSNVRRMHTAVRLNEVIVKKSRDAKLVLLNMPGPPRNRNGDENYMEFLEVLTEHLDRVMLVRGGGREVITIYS
Test: concentration-response of KCC2 transport modulators – cell-based, HEK293 KCC2, FluoZin-2 fluorescence, dose response (AID 1736)

[1] = inactive by the depositor's call

Sc1nnc(Nc2ccccc2)s1 [5-anilino-3H-1,3,4-thiadiazole-2-thione]
pEC50: 5.60

O=C(C1CCN(S(=O)(=O)c2cccs2)CC1)N1CCc2ccccc2C1 [3,4-dihydro-1H-isoquinolin-2-yl-(1-thiophen-2-ylsulfonyl-4-piperidinyl)methanone]
pEC50: 5.38

O=c1cc(CSc2nnnn2-c2ccccc2)nc2scc(-c3ccccc3)n12 [3-phenyl-7-[(1-phenyl-1,2,3,4-tetrazol-5-yl)sulfanylmethyl]-[1,3]thiazolo[3,2-a]pyrimidin-5-one]
pEC50 [1]: 2.34

O=C(O)CCN(Cc1ccccc1)S(=O)(=O)c1c(Cl)cccc1Cl [3-[(2,6-dichlorophenyl)sulfonyl-(phenylmethyl)amino]propanoic acid]
pEC50: 4.27

Cc1ccc(NC(=O)c2ccccc2NS(=O)(=O)c2ccc(Cl)s2)cc1 [2-[(5-chloranylthiophen-2-yl)sulfonylamino]-N-(4-methylphenyl)benzamide]
pEC50: 5.79

CC(C)N1C(=O)S/C(=C/c2ccccc2OCc2ccc(C(=O)O)cc2)C1=O
pEC50: 3.66

CCOc1cc(S(=O)(=O)NCc2ccccc2)ccc1F [3-ethoxy-4-fluoranyl-N-(phenylmethyl)benzenesulfonamide]
pEC50: 5.33

COc1ccc(-c2nnc(S/C(=C/c3ccc(Cl)cc3)C(=O)O)o2)cc1 [(E)-3-(4-chlorophenyl)-2-[[5-(4-methoxyphenyl)-1,3,4-oxadiazol-2-yl]sulfanyl]prop-2-enoic acid]
pEC50: 6.31

Cc1ccc(C(=O)Nc2nc(=O)n(C(=O)c3ccccc3Cl)s2)cc1 [MLS000540480]
pEC50: 5.41

O=C(CSc1nnc(-c2c[nH]c3ccccc23)o1)N1CCCCC1 [SMR000003748]
pEC50: 5.42

Cn1c(SCc2ccccc2Cl)nc2ccccc21 [2-[(2-chlorobenzyl)thio]-1-methyl-1H-benzimidazole]
pEC50: 5.40

CN(Cc1ccccc1)c1nc2nonc2nc1N1CCCC(CN2CCCC2=O)C1 (stereo not drawn) [1-[(1-{6-[benzyl(methyl)amino][1,2,5]oxadiazolo[3,4-b]pyrazin-5-yl}piperidin-3-yl)methyl]pyrrolidin-2-one]
pEC50: 2.04

CCN(CC)c1ccc2c(C)c(-c3ccc(N)cc3)c(=O)oc2c1 [3-(4-aminophenyl)-7-(diethylamino)-4-methyl-1-benzopyran-2-one]
pEC50: 5.97

CCOc1ccc(Nc2nnc(S)s2)cc1 [5-(4-ethoxyanilino)-3H-1,3,4-thiadiazole-2-thione]
pEC50 [1]: 7.33

COc1ccc(C(=O)N2CCCC(c3ccccc3)C2)cc1 (stereo not drawn) [(4-methoxyphenyl)-(3-phenyl-1-piperidinyl)methanone]
pEC50: 3.96

O=C(Cn1cnc2c(nnn2Cc2ccc(F)cc2)c1=O)NCc1ccc2c(c1)OCO2 [2-[3-(4-fluorobenzyl)-7-keto-triazolo[4,5-d]pyrimidin-6-yl]-N-piperonyl-acetamide]
pEC50: 5.58

Cc1cc(C(=O)COC(=O)CCc2nc3ccccc3s2)c(C)n1C [3-(1,3-benzothiazol-2-yl)propanoic acid [2-oxo-2-(1,2,5-trimethyl-3-pyrrolyl)ethyl] ester]
pEC50: 4.80

O=C(Cn1cnc2c(nnn2Cc2ccc(F)cc2)c1=O)NCc1ccco1 [2-[3-(4-fluorobenzyl)-7-keto-triazolo[4,5-d]pyrimidin-6-yl]-N-(2-furfuryl)acetamide]
pEC50 [1]: 4.31

O=C(C1CC1)N1CCc2cc(S(=O)(=O)NC3CCN(Cc4ccccc4)CC3)ccc21 [1-[cyclopropyl(oxo)methyl]-N-[1-(phenylmethyl)-4-piperidinyl]-2,3-dihydroindole-5-sulfonamide]
pEC50: 4.64

O=C(NC1CCCC1)C(c1ccncc1)N(Cc1ccco1)C(=O)c1ccc(-c2ccccc2)[nH]1 (stereo not drawn) [MLS000718066]
pEC50: 5.20

CC(=NNC(=O)c1ccc(Br)cc1)c1ccccc1 [MLS000558629]
pEC50: 5.57

C=CCn1c(Cc2cccs2)nnc1SCC(=O)c1ccc2ccccc2c1 [1-(2-naphthalenyl)-2-[[4-prop-2-enyl-5-(thiophen-2-ylmethyl)-1,2,4-triazol-3-yl]thio]ethanone]
pEC50: 5.30

S=C(NCCc1ccccc1)NCc1cccs1 [1-(2-phenylethyl)-3-(thiophen-2-ylmethyl)thiourea]
pEC50 [1]: 5.24

O=C(NCc1cccnc1)c1ccc(COc2ccc(Cl)cc2Cl)o1 [5-[(2,4-dichlorophenoxy)methyl]-N-(3-pyridinylmethyl)-2-furancarboxamide]
pEC50: 2.69

O=C(NNc1nc(-c2ccc(F)cc2)cs1)c1ccccc1 [MLS000763429]
pEC50: 6.09

c1ccc(-n2cnc3cc(NCc4ccncc4)ccc32)cc1 [(1-phenylbenzimidazol-5-yl)-(4-pyridylmethyl)amine]
pEC50: 5.26

Cc1ccc2oc(-c3ccc(C)c(NC(=S)NC(=O)c4cccs4)c3)nc2c1 [1-[2-Methyl-5-(5-methyl-benzooxazol-2-yl)-phenyl]-3-(thiophene-2-carbonyl)-thiourea]
pEC50: 6.70

O=C(CSc1ccc(-c2cccs2)nn1)Nc1ccccc1F [MLS000621184]
pEC50: 5.66

COc1ccc(S(=O)(=O)N(CCc2ccccc2)CC(=O)O)cc1Cl [2-[(3-chloranyl-4-methoxy-phenyl)sulfonyl-(2-phenylethyl)amino]ethanoic acid]
pEC50: 5.42

O=C(NC(=S)Nc1nc(-c2cccc([N+](=O)[O-])c2)cs1)c1cc(Cl)ccc1Cl [2,5-bis(chloranyl)-N-[[4-(3-nitrophenyl)-1,3-thiazol-2-yl]carbamothioyl]benzamide]
pEC50: 4.46

Cc1ccc2[nH]c(=O)c(CN(CCc3ccccc3)Cc3nnnn3CC3CCCO3)cc2c1 (stereo not drawn) [SMR000003177]
pEC50: 3.61

Cc1nn(C)c(C)c1C=C1SC(S)=NC1=O [MLS000324943]
pEC50: 5.82

N#Cc1ccccc1NC(=O)CSc1nccn1CCc1ccccc1 [MLS000051858]
pEC50: 4.90

CCCCNc1cc(C(=O)O)cc(S(N)(=O)=O)c1Oc1ccccc1 [Fordiuran]
pEC50: 8.97

O=C(/C=C/c1ccco1)N1CCC(Cc2ccccc2)CC1 [(E)-1-(4-benzylpiperidin-1-yl)-3-(furan-2-yl)prop-2-en-1-one]
pEC50: 5.53

O=C(COC(=O)c1cc([N+](=O)[O-])ccc1NCc1ccccc1)NC1CCCCC1 [2-(benzylamino)-5-nitro-benzoic acid [2-(cyclohexylamino)-2-keto-ethyl] ester]
pEC50: 5.34

CN(C)S(=O)(=O)N(CC(=O)NCCSCc1ccccc1)c1ccccc1 [2-[N-(dimethylsulfamoyl)anilino]-N-[2-(phenylmethylthio)ethyl]acetamide]
pEC50 [1]: 4.73

CC(=O)NC(C)C(=O)OCC(=O)c1ccc(-c2ccccc2)cc1 (stereo not drawn) [2-acetamidopropanoic acid [2-oxo-2-(4-phenylphenyl)ethyl] ester]
pEC50: 5.10

CC(=O)Nc1ccc(S(=O)(=O)N2CCN(C(C)CCc3ccccc3)CC2)cc1 (stereo not drawn) [MLS000110551]
pEC50 [1]: 4.17

O=C(c1ccccc1SCc1ccc(F)cc1)N1CCOCC1 [MLS000712999]
pEC50: 5.05

O=C(O)CCc1cc(I)c(Oc2ccc(O)c(I)c2)c(I)c1 [3-[4-(4-hydroxy-3-iodophenoxy)-3,5-diiodophenyl]propanoic acid]
pEC50: 4.95

COc1ccc(/C=C2\CCc3ccccc3C2=O)cc1CN1CCOCC1 [(2E)-2-[4-methoxy-3-(morpholinomethyl)benzylidene]tetralin-1-one]
pEC50 [1]: 3.66

Cn1nccc1C(=O)OCC(=O)Nc1nc(-c2ccccc2)cs1 [2-Methyl-2H-pyrazole-3-carboxylic acid (4-phenyl-thiazol-2-ylcarbamoyl)-methyl ester]
pEC50: 4.96
